Test results reported in a melting point compilation (Tetko et al.; mined from patent text by program, amines drawn as free bases though some values may be those of a salt).

melting point [°C]	Structure (SMILES)
196 to 197	COc1ccc2nc3snc(C(=O)c4ncc(C)c(OC)c4C)n3c2c1
314 to 315	O=C(O)c1ccc2[nH]c(C(=O)O)cc2c1
248 to 251	CC1CC(=O)NN=C1c1ccc2c(ccc(=O)n2C)c1 (configuration not stated)
245 to 251	O=C(Nc1ccccc1F)c1ccc(CN2C(=O)C3(COc4cc5c(cc43)OCCO5)c3ccccc32)cc1 (configuration not stated)
296 to 300	O=C(CC1CCCCC1)Nc1n[nH]c(-c2ccc(F)cc2)c1-c1ccncc1
140 to 145	CCn1cnc(Cl)c2nc(C3CC3)nc1-2
108 to 109	Cc1c(Br)c2c(c3c1C(c1ccc(C(C)C)cc1)CO3)CCCC2 (configuration not stated)
120 to 121	CC1(C)CC(NC(=O)C(O)c2ccccc2)c2cc(C#N)ccc2O1 (configuration not stated)
75 to 78	COC(=O)C(CC(=O)c1cc(Cl)c(C)c(Cl)c1)OC (configuration not stated)
118	CCOC1=N[C@@H](CSCC)C(=O)N[C@@H]1Cc1ccccc1
157 to 161	Cc1noc(-c2cccc(NC(=O)N[C@@H]3c4cc(C#N)ccc4OC(C)(C)[C@H]3O)c2)n1
249 to 251	COC[C@H](C)N1CCc2sc(Nc3ncc(F)cn3)nc2-c2c[nH]nc21
141 to 142	COC(=O)c1ccc(OCCCN(C(N)=O)c2ccc(Cl)cc2)cc1
94 to 96	NCCCC(O)c1ccccc1 (configuration not stated)
97 to 98.5	OCc1sc(Cl)nc1-c1ccc(F)cc1
> 350	CCCn1c(=O)c2nc(-c3ccc(/C=C/C(=O)O)cc3)[nH]c2n(CC2CCCCC2)c1=O
91 to 93	COc1ccc(C2(O)c3ccccc3-c3ccccc32)cc1
113 to 116	CN1CCC(=C2c3ccccc3COc3cc(Cl)ccc32)CC1
220 to 225	O=C(O)c1cc(C(F)(F)F)cc(-c2ccc(Cl)c(C(=O)NCC34CC5CC(CC(C5)C3)C4)c2)n1
69 to 71	COc1ccc2c(CC3=C(CC(=O)O)CCCC3=O)cccc2c1C(F)(F)F
201 to 202	O=C1N(Cc2ccc(Br)cn2)c2ccccc2C12COc1cc3c(cc12)OCCO3 (configuration not stated)
213 to 216	O=C(O)CN1C(=O)C(=Cc2cc(OCc3ccccc3)c(OCc3ccccc3)c(OCc3ccccc3)c2)SC1=S
58 to 59	CO[C@@]1(C)O[C@@H]2[C@H](OCc3ccccc3)OC[C@H](OC(=O)c3ccc([N+](=O)[O-])cc3)[C@H]2O[C@]1(C)OC
221	CC(C)(S)C(N)P(C)(=O)O (configuration not stated)

melting point [°C]	Structure (SMILES)
72 to 74	O=C(c1ccc(F)cc1)c1noc(CN2CCN(c3ccccc3)CC2)n1
111 to 115	CC(O)c1ccc(-c2ccc(N)cc2)cc1 (configuration not stated)
119 to 120	Cc1cn(-c2cccc([N+](=O)[O-])c2)cn1
50	CCCN(c1nc(-c2ccc(OC)cc2Cl)c(C)s1)c1cc(C(C)=O)ccc1OC
90	COc1ccc(F)cc1C(C)(C)c1cc(F)ccc1O
124 to 126	O=S(=O)(Cc1cccs1)c1ncc(Br)cn1
68 to 70	CCCc1cc(NCc2ccc(Cl)cc2)nc(SCC#N)n1
119 to 121	CC(C)Cc1ccc(C(C)C(=O)NO)cc1 (configuration not stated)
333	Cn1c(=O)c(=O)[nH]c2c3ccccc3ccc21
117 to 120	Oc1c(C2NCCc3ccccc32)ccc2ccccc12 (configuration not stated)
132 to 134	CN1C(=O)[C@@H](NC(=O)OC(C)(C)C)CCc2ccccc21
140 to 141	COc1ccc(CS[C@H]2C[C@@H](C(=O)N3CCN(C)CC3)N(C(=O)OCc3ccc([N+](=O)[O-])cc3)C2)cc1
110	O=C(O)CP(=O)(O)CCCCc1ccccc1
233	CC(C)(C)CC(C)(C)c1ccc(Oc2ccc(C(F)(F)F)cc2NC(=O)Nc2cc(C(F)(F)F)cc(C(F)(F)F)c2)c(C(=O)O)c1
165 to 168	CN(C)CCNS(=O)(=O)c1ccc(O)cc1
107 to 109	CN(CCc1cn(C(=O)OCc2ccccc2)c2ccc([N+](=O)[O-])cc12)C(=O)C(F)(F)F
44	CCCCCCCCCCCCCCCCCC(=O)NCC(C)(C)COC(=O)CCc1cc(C(C)(C)C)c(O)c(C(C)(C)C)c1
193 to 195	CNc1ccc(C(=O)Nc2cccc(-c3nc(NC)nc4cc(OC)c(OC)cc34)c2)cn1
130 to 131	NC(=O)CC1CN=C(c2cc3cccc(NS(=O)(=O)c4cccs4)c3[nH]2)S1 (configuration not stated)
125 to 126	CCCn1c(Cl)cc2cnc(C)n2c1=O
86	CCN1CCCC1CNC(=O)c1c(O)c(OC)c2occc2c1OC (configuration not stated)
269 to 270	O=Cc1cccn1-c1ccc(C(=O)O)cc1
134 to 136	CON=C(N)Nc1nc(C)cc(C)n1
207 to 210	CC1(C)CCC(C)(C)c2cc(Oc3ccc(C=C(O)C(=O)O)cc3)ccc21

melting point [°C]	Structure (SMILES)
161 to 163	O=C(Nc1cc(Cl)cc(Cl)c1O)Nc1cccc(C(F)(F)F)c1Cl
164 to 167	Cc1cc(C)c(C(=O)O)c(C)c1C
108 to 110	CCOC(=O)N1CCN2c3ccccc3Cc3ccccc3C2C1 (configuration not stated)
> 250	O=c1c2ccc(Cl)cc2[nH]c2c(O)nn(Cc3ccsc3)c(=O)c12
108 to 109	CC(C)n1c(=O)n(C)c2cc(-c3ncc(C(F)(F)F)cc3Cl)ccc21
200 to 202	Nc1ncnc2c1c(-c1ccc(Oc3ccccc3)cc1)nn2C1CCC2(CC1)OCCO2
151 to 152	CN1CCN(c2cccc3c2C[C@H](NC(=O)Cc2ccccc2)CC3)CC1
160 to 162	COCCOc1ccccc1S(=O)(=O)NC(=O)Nc1nc(C)cc(OC)n1
144 to 145	CS(=O)CC(=O)c1cc(C(C)(C)C)c(O)c(C(C)(C)C)c1 (configuration not stated)
116	Cn1ncc(C(N)=O)c1-c1ccco1
226 to 228	O=C(O)c1sc(Oc2ccc3c(c2)OCO3)c2c1CCc1cnoc1-2
117 to 118	Nc1ncccc1NCc1ccc(Oc2ccc(F)cc2)cc1
84 to 87	COc1ncccc1C(=O)NCCc1ccncc1
123 to 125	COc1cc(OC)nc(Oc2ccc3ccccc3c2C=O)n1
92 to 93	CC(=O)c1cc(C)ccc1OCCCN1CCC(c2noc3cc(F)ccc23)CC1
273	CCN(CC)c1ccc(-c2cc(-c3ccc(C(=O)O)cc3)ccc2CCCNC(C)(C)C)cc1C(C)(C)C
114 to 116	CCOC(=O)c1cc2c(OCc3ccccc3)ccc3c(CC)c(-c4ccc(OCc5ccccc5)cc4)c1n23
97 to 100	CC(=O)N(Cc1ccc(C[C@@H](C(=O)O)n2cccc2)cc1)Cc1nc(-c2ccccc2)oc1C
116 to 117	CC(=O)c1ccc(OCCCN2CCC(C(O)(c3ccc(F)cc3)c3ccc(F)cc3)CC2)c(C)c1
> 300	COc1ccccc1Oc1c(Cl)nc(-c2ccoc2)nc1NS(=O)(=O)c1ccc(C(C)(C)C)cc1
80 to 81	COC(=O)C[C@H](O)C[C@H](O)CCc1c(-c2ccc(F)cc2)c(-c2ccccc2)c(C(=O)Nc2cccc(S(N)(=O)=O)c2)n1C(C)C
159	Cc1c(CC(=O)OC(OC(=O)Cc2cc(C(C)(C)C)c(O)c(C)c2C)(OC(=O)Cc2cc(C(C)(C)C)c(O)c(C)c2C)C(C)(C)C)cc(C(C)(C)C)c(O)c1C
93 to 94	C=CCOc1cc([N+](=O)[O-])ccc1OC
119 to 120	CCCc1nn(-c2ccc(C(F)(F)F)cn2)cc1CCCOc1nn(C)cc1CC(=O)O

melting point [°C]	Structure (SMILES)
109 to 111	O=C(c1cc(-c2ccccc2)no1)C1CCCCC1N1CCCC1 (configuration not stated)
135	CO[C@@H]1CN(Cc2ccccc2)CC[C@H]1NC(=O)c1cccc(C(F)(F)F)c1 (relative stereo)
> 250	NC1=NS(=O)(=O)Nc2cccc(OCC3(NC(=O)c4ccncc4)CCCC3)c21
82 to 83	COc1ccc(-c2ccccc2C#N)cc1
156 to 157	CCOC(=O)c1c(NC)c(N=O)c2ccccn12
168	OC1(c2cccc3[nH]ccc23)CCN(CCOc2ccccc2)CC1
186 to 188	Cc1oc2c(NC(=O)c3c(Cl)ccc(Cl)c3C(=O)O)cccc2c1C
136	N#CCCNNC(=O)c1ccc(OCc2ccccc2)cc1
142 to 145	CNC(=O)NCCn1c(-c2ccc(CN3CCOCC3)cc2)csc1=Nc1ccc(F)c(C)c1
154 to 156	CS(=O)(=O)N(Cc1ccccn1)CC(O)(Cn1cncn1)c1ccc(Cl)cc1Cl (configuration not stated)
202 to 204	Nc1ccn(C2OC(CO)C(O)C2O)c(=O)c1Br (configuration not stated)
104 to 106	C#CCOC(=O)Oc1ccc(C(=O)c2ccc(OC(=O)OCC#C)cc2)cc1
53 to 56	O=C1C(=Cc2ccccc2)CCc2cc(OCCc3c[nH]cn3)ccc21
45 to 47	O=C(c1ccc(F)cc1)C1CCN(CCO)CC1
> 280	COc1cc2c(=O)n(NS(C)(=O)=O)c(=O)[nH]c2cc1[N+](=O)[O-]
116 to 117	O=C(C[C@H](C(=O)N[C@H](CO)Cc1ccccc1)n1cc(-c2ccc(-c3ccccc3)cc2)cn1)OCc1ccccc1
193 to 194	NC(=O)c1cnn2c(=O)n(CCCl)nnc12
143 to 144	COC(=O)c1csc(NC(=O)[C@H](CC2CCCC2)c2ccc(Cl)c(Cl)c2)n1
120	O=S(=O)(c1ccc(Cl)cc1)N1CCCC1c1ccsc1 (racemic)
219 to 221	COc1ccccc1C(=O)OC(=C1C(=O)N(C(N)=O)c2cc(Cl)c(F)cc21)c1cccs1
93	CCC[C@H]1CC[C@H](OC(=O)c2ccc(OCC)c(F)c2F)CC1
126 to 128	CC(Cc1ccc(Oc2cc(N3CCN(Cc4ccccc4)CC3)nc(Oc3ccccc3)n2)cc1)(Oc1ccccc1)C(=O)O (configuration not stated)

Structure (SMILES)	melting point [°C]
N#CC1(Cl)C=C(O)C=NC1 (configuration not stated)	182 to 184
CC(C)(C)CCCOC1CCC2C3CC=C4CC(O[Si](C)(C)C(C)(C)C)CCC4(C)C3CCC12C (configuration not stated)	138 to 139
Cn1cncc1C(O)(c1ccc(Cl)cc1)c1ccc2c(c1)C(c1cccc(Cl)c1)=NCc1nnnn1-2 (configuration not stated)	240
